Results reported in ChEMBL document CHEMBL1143421, “Population pharmacokinetics at two dose levels and pharmacodynamic profiling of flucloxacillin” (Antimicrob Agents Chemother, 2007).

Columns and labels:
Homo sapiens [1] = species on record: Homo sapiens; assay: Nonrenal clearance in human at a loading dose of 1 g and maintenance dose of 1.2 g/h for 3 hrs; format: ADME, organism-based; settings: in vivo
[2] = Terminal half life in human at 500 mg, iv infused for 5 mins; format: ADME, organism-based; settings: in vivo, read-out: beta t1/2 (converted)
[3] = Total body clearance in human at 500 mg, iv infused for 5 mins; settings: in vivo
Staphylococcus aureus [4] = assay: Bacteriostatic activity against methicillin-susceptible Staphylococcus aureus infected human at MIC of 0.75 mg/l at 6 g, iv administered as continuous infusion for 4 hrs; format: functional
clinical = settings: human, in vivo
Description: Total clearance in human at a loading dose of 1 g and maintenance dose of 1.2 g/h for 3 hrs

Homo sapiens [5] = assay: Nonrenal clearance in human at 1000 mg, iv infused for 5 mins; format: ADME, organism-based; settings: in vivo
[6] = Protein binding in human plasma; format: ADME, cell-free; settings: read-out: PPB (converted)
[7] = Renal clearance in human at a loading dose of 1 g and maintenance dose of 1.2 g/h for 3 hrs; format: ADME, organism-based, Kidney; settings: in vivo, iv, read-out: CL_renal (converted)
Homo sapiens [8] = assay: Metabolic stability in human assessed as urinary excretion of unchanged drug level at 1000 mg, iv infused for 5 mins; format: ADME, organism-based, Urine; settings: in vivo
Staphylococcus aureus [9] = assay: Bacteriostatic activity against methicillin-susceptible Staphylococcus aureus infected human at MIC of 2 mg/l at 2 g, iv administered every 4 hrs as 0.5 hrs infusion; format: functional
Homo sapiens [10] = assay: Metabolic stability in human assessed as urinary excretion of unchanged drug level at 500 mg, iv infused for 5 mins; format: ADME, organism-based, Urine; settings: in vivo
[11] = Terminal half life in human at 1000 mg, iv infused for 5 mins; format: ADME, organism-based; settings: in vivo, read-out: beta t1/2 (converted)
Staphylococcus aureus [12] = assay: Bactericidal activity against methicillin-susceptible Staphylococcus aureus infected human at MIC of 0.75 mg/l at 2 g, iv administered every 8 hrs as 4 hrs infusion; format: functional
[13] = Volume of distribution at steady state in human at 1000 mg, iv infused for 5 mins; format: ADME, organism-based; settings: in vivo, read-out: Vdss
[14] = Plasma concentration in human at 1000 mg, iv infused for 5 mins; format: ADME, organism-based
[15] = Total body clearance in human at 1000 mg, iv infused for 5 mins; settings: in vivo
[16] = Mean residence time in human at 1000 mg, iv infused for 5 mins; format: ADME, organism-based; settings: in vivo
Staphylococcus aureus [17] = assay: Bactericidal activity against methicillin-susceptible Staphylococcus aureus infected human at MIC of 1 mg/l at 2 g, iv administered every 4 hrs as 0.5 hrs infusion; format: functional
[18] = Plasma concentration in human at 500 mg, iv infused for 5 mins; format: ADME, organism-based
[19] = Volume of distribution at steady state in human at 500 mg, iv infused for 5 mins; format: ADME, organism-based; settings: in vivo, read-out: Vdss
[20] = Renal clearance in human at 1000 mg, iv infused for 5 mins; format: ADME, organism-based, Kidney; settings: in vivo, read-out: CL_renal (converted)
Staphylococcus aureus [21] = assay: Bactericidal activity against methicillin-susceptible Staphylococcus aureus infected human at MIC of 0.25 mg/l at 1.5 g, iv administered every 6 hrs as 0.5 hrs infusion; format: functional
Staphylococcus aureus [22] = assay: Antibacterial activity against methicillin-susceptible Staphylococcus aureus; format: functional
[23] = Renal clearance in human at 500 mg, iv infused for 5 mins; format: ADME, organism-based, Kidney; settings: in vivo, read-out: CL_renal (converted)
[24] = Total clearance in human at 1 g, iv infused for 5 mins; settings: in vivo
Staphylococcus aureus [25] = assay: Bactericidal activity against methicillin-susceptible Staphylococcus aureus infected human at MIC of 0.75 mg/l at 6 g, iv administered as continuous infusion for 4 hrs; format: functional
Staphylococcus aureus [26] = assay: Bacteriostatic activity against methicillin-susceptible Staphylococcus aureus infected human at MIC of 0.75 mg/l at 1.5 g, iv administered every 6 hrs as 0.5 hrs infusion; format: functional
[27] = Mean residence time in human at 500 mg, iv infused for 5 mins; format: ADME, organism-based; settings: in vivo
Staphylococcus aureus [28] = assay: Bacteriostatic activity against methicillin-susceptible Staphylococcus aureus infected human at MIC of 1.5 mg/l at 2 g, iv administered every 8 hrs as 4 hrs infusions; format: functional
Homo sapiens [29] = assay: Nonrenal clearance in human at 500 mg, iv infused for 5 mins; format: ADME, organism-based; settings: in vivo

Structure (SMILES): Cc1onc(-c2c(F)cccc2Cl)c1C(=O)N[C@@H]1C(=O)N2[C@@H]1SC(C)(C)[C@@H]2C(=O)O [FLOXACILLIN]
- CL (Homo sapiens [1]): 2.1 L/h
- half-life [2]: 1.4 h
- clearance at 5 min [3]: 136 mL/min
- fT>MIC (Staphylococcus aureus [4]): >=30%
- clearance at 3 h (clinical): 123 mL/min
- CL (Homo sapiens [5]): 2.79 L/h
- fraction unbound [6]: 0.054
- CL renal at 3 h [7]: 88.3 mL/min
- Activity (Homo sapiens [8]): 0.65
- fT>MIC (Staphylococcus aureus [9]): >=30%
- Activity (Homo sapiens [10]): 0.66
- half-life [11]: 1.62 h
- fT>MIC (Staphylococcus aureus [12]): >=50%
- Vd [13]: 9.97 L
- concentration at 5 min [14]: 167 µg/mL
- clearance at 5 min [15]: 136 mL/min
- MRT [16]: 1.22 h
- fT>MIC (Staphylococcus aureus [17]): >=50%
- concentration at 5 min [18]: 86.8 µg/mL
- Vd [19]: 9.63 L
- CL renal at 5 min [20]: 88.2 mL/min
- fT>MIC (Staphylococcus aureus [21]): >=50%
- MIC90 (Staphylococcus aureus [22]): ≤ 0.5 µg/mL
- CL renal at 5 min [23]: 89.5 mL/min
- clearance at 5 min [24]: 118 mL/min
- fT>MIC (Staphylococcus aureus [25]): >=50%
- Activity (Staphylococcus aureus [26]): >30%
- MRT [27]: 1.18 h
- fT>MIC (Staphylococcus aureus [28]): >=30%
- CL (Homo sapiens [29]): 2.72 L/h
